Experimental data: ChEMBL document CHEMBL1151440, “Safety and pharmacokinetics of GSK364735, a human immunodeficiency virus type 1 integrase inhibitor, following single and repeated administration in healthy adult subjects” (Antimicrob Agents Chemother, 2007)

Assays:
[1] = Oral bioavailability in monkey; format: ADME, organism-based, Macaca mulatta; conditions: rhesus monkey, in vivo
[2] = Tmax in human at 50 mg administered with fat meal every 12 hrs for 8 days measured on day 8; format: ADME, organism-based; conditions: in vivo
[3] = AUC (0 to infinity) in fasted human at 400 mg administered as single dose; format: ADME, organism-based; set-up: dose 400 mg, time infinity; conditions: plasma
[4] = Apparent oral clearance in fasted human at 100 mg administered as single dose; format: ADME, organism-based; conditions: in vivo
Homo sapiens [5] = experiment: Toxicity in human assessed as adverse effect at 50 to 200 mg administered as single dose; format: organism-based; conditions: in vivo
[6] = AUC (0 to 12 hrs) in human at 200 mg administered with fat meal every 12 hrs for 8 days measured on day 8; format: ADME, organism-based; set-up: dose 200 mg, time < 12 hr; conditions: plasma
Homo sapiens [7] = experiment: Toxicity in human assessed as changes in 12-lead ECG at 50 to 200 mg administered as single dose; format: organism-based; conditions: in vivo
Homo sapiens [8] = experiment: Toxicity in human assessed as headache at 100 mg administered every 12 hrs for 8 days; format: organism-based; conditions: in vivo
[9] = Apparent oral clearance in human at 200 mg administered with fat meal every 12 hrs for 8 days measured on day 1; format: ADME, organism-based; conditions: in vivo
Homo sapiens [10] = experiment: Toxicity in human assessed as changes in vital signs at 50 to 200 mg administered as single dose; format: organism-based; conditions: in vivo
[11] = Cmax in human at 50 mg administered with fat meal every 12 hrs for 8 days measured on day 8; format: ADME, organism-based; set-up: dose 50 mg; conditions: in vivo
[12] = AUC (0 to infinity) in fasted human at 100 mg administered as single dose; format: ADME, organism-based; set-up: dose 100 mg, time infinity; conditions: plasma
[13] = Apparent oral clearance in human at 100 mg administered with fat meal every 12 hrs for 8 days measured on day 8; format: ADME, organism-based; conditions: in vivo
[14] = Terminal elimination half life in iv dosed rat; format: ADME, organism-based; conditions: in vivo, read-out: beta t1/2 (converted)
[15] = Terminal elimination half life in fasted human at 100 mg administered as single dose; format: ADME, organism-based; conditions: in vivo, read-out: beta t1/2 (converted)
Homo sapiens [16] = experiment: Toxicity in human assessed as headache at 50 mg administered every 12 hrs for 8 days; format: organism-based; conditions: in vivo
[17] = Apparent oral clearance in human at 400 mg administered with fat meal as single dose; format: ADME, organism-based; conditions: in vivo
[18] = Terminal elimination half life in human at 200 mg administered with fat meal every 8 hrs for 8 days measured on day 1; format: ADME, organism-based; conditions: in vivo, read-out: beta t1/2 (converted)
[19] = Terminal elimination half life in iv dosed monkey; format: ADME, organism-based, Macaca mulatta; conditions: rhesus monkey, in vivo, read-out: beta t1/2 (converted)
Homo sapiens [20] = experiment: Toxicity in human assessed as flatulence at 50 to 200 mg administered as single dose; format: organism-based; conditions: in vivo
[21] = Tmax in fasted human at 400 mg administered as single dose; format: ADME, organism-based; conditions: in vivo
[22] = AUC (0 to infinity) in human at 100 mg administered with fat meal every 12 hrs for 8 days measured on day 1; format: ADME, organism-based; set-up: dose 100 mg, time infinity; conditions: plasma
[23] = system: Human immunodeficiency virus 1; experiment: Antiviral activity against HIV1 BaL in peripheral blood lymphocytes; format: functional, organism-based; conditions: Human immunodeficiency virus 1, BaL
Homo sapiens [24] = species on record: Homo sapiens; experiment: Protein binding in human plasma by equilibrium dialysis assay; conditions: read-out: PB
[25] = Cmax in human at 100 mg administered with fat meal every 12 hrs for 8 days measured on day 8; format: ADME, organism-based; set-up: dose 100 mg; conditions: in vivo
[26] = Apparent oral clearance in human at 400 mg administered with fat meal daily for 8 days measured on day 8; format: ADME, organism-based; conditions: in vivo
[27] = Cmax in human at 200 mg administered with fat meal every 12 hrs for 8 days measured on day 1; format: ADME, organism-based; set-up: dose 200 mg; conditions: in vivo
[28] = Cmax in human at 200 mg administered with fat meal every 8 hrs for 8 days measured on day 1; format: ADME, organism-based; set-up: dose 200 mg; conditions: in vivo
[29] = Terminal elimination half life in human at 200 mg administered with fat meal every 8 hrs for 8 days measured on day 8; format: ADME, organism-based; conditions: in vivo, read-out: beta t1/2 (converted)
[30] = AUC (0 to 12 hrs) in human at 50 mg administered with fat meal every 12 hrs for 8 days measured on day 8; format: ADME, organism-based; set-up: dose 50 mg, time < 12 hr; conditions: plasma
[31] = Tmax in human at 200 mg administered with fat meal every 12 hrs for 8 days measured on day 8; format: ADME, organism-based; conditions: in vivo
[32] = Tmax in human at 100 mg administered with fat meal every 12 hrs for 8 days measured on day 8; format: ADME, organism-based; conditions: in vivo
[33] = AUC (0 to infinity) in human at 200 mg administered with fat meal as single dose; format: ADME, organism-based; set-up: dose 200 mg, time infinity; conditions: plasma
[34] = AUC (0 to 12 hrs) in human at 100 mg administered with fat meal every 12 hrs for 8 days measured on day 8; format: ADME, organism-based; set-up: time < 12 hr, dose 100 mg; conditions: plasma
[35] = Terminal elimination half life in human at 200 mg administered with fat meal every 12 hrs for 8 days measured on day 8; format: ADME, organism-based; conditions: in vivo, read-out: beta t1/2 (converted)
[36] = Cmax in fasted human at 50 mg administered as single dose; format: ADME, organism-based; set-up: dose 50 mg; conditions: in vivo
[37] = Apparent oral clearance in fasted human at 400 mg administered as single dose; format: ADME, organism-based; conditions: in vivo
[38] = Cmax in fasted human at 400 mg administered as single dose; format: ADME, organism-based; set-up: dose 400 mg; conditions: in vivo
Homo sapiens [39] = experiment: Toxicity in human assessed as dizziness at 100 mg administered every 12 hrs for 8 days; format: organism-based; conditions: in vivo
[40] = Cmax in human at 50 mg administered with fat meal every 12 hrs for 8 days measured on day 1; format: ADME, organism-based; set-up: dose 50 mg; conditions: in vivo
[41] = Terminal elimination half life in human at 200 mg administered with fat meal as single dose; format: ADME, organism-based; conditions: in vivo, read-out: beta t1/2 (converted)
[42] = Cmax in human at 400 mg administered with fat meal as single dose; format: ADME, organism-based; set-up: dose 400 mg; conditions: in vivo
[43] = Cmax in human at 400 mg administered with fat meal daily for 8 days measured on day 1; format: ADME, organism-based; set-up: dose 400 mg; conditions: in vivo
[44] = Terminal elimination half life in human at 200 mg administered with fat meal every 12 hrs for 8 days measured on day 1; format: ADME, organism-based; conditions: in vivo, read-out: beta t1/2 (converted)
[45] = Cmax in human at 200 mg administered with fat meal every 8 hrs for 8 days measured on day 8; format: ADME, organism-based; set-up: dose 200 mg; conditions: in vivo
Homo sapiens [46] = experiment: Toxicity in human assessed as headache at 50 to 200 mg administered as single dose; format: organism-based; conditions: in vivo
[47] = Tmax in fasted human at 100 mg administered as single dose; format: ADME, organism-based; conditions: in vivo
[48] = Cmax in human at 200 mg administered with fat meal as single dose; format: ADME, organism-based; set-up: dose 200 mg; conditions: in vivo
[49] = Terminal elimination half life in human at 100 mg administered with fat meal every 12 hrs for 8 days measured on day 1; format: ADME, organism-based; conditions: in vivo, read-out: beta t1/2 (converted)
Homo sapiens [50] = experiment: Toxicity in human assessed as diarrhea at 50 to 200 mg administered as single dose; format: organism-based; conditions: in vivo
Homo sapiens [51] = experiment: Toxicity in human assessed as increase in LDL cholesterol level at 50 to 400 mg after sequential repeated dose administration for 8 days relative to basal level; format: organism-based; conditions: in vivo, 192 h
[52] = AUC (0 to infinity) in fasted human at 200 mg administered as single dose; format: ADME, organism-based; set-up: dose 200 mg, time infinity; conditions: plasma
[53] = Tmax in human at 200 mg administered with fat meal every 8 hrs for 8 days measured on day 8; format: ADME, organism-based; conditions: in vivo
Homo sapiens [54] = species on record: Homo sapiens; experiment: Toxicity in human assessed as headache at 400 mg daily for 8 days; format: organism-based; conditions: in vivo, 192 h
Homo sapiens [55] = experiment: Toxicity in human assessed as changes in 12-lead ECG at 50 to 400 mg after sequential repeated administration for 8 days; format: organism-based; conditions: in vivo, 192 h
Homo sapiens [56] = species on record: Homo sapiens; experiment: Toxicity in human assessed as dizziness at 400 mg daily for 8 days; format: organism-based; conditions: in vivo, 192 h
[57] = Apparent oral clearance in human at 100 mg administered with fat meal every 12 hrs for 8 days measured on day 1; format: ADME, organism-based; conditions: in vivo
[58] = Tmax in human at 200 mg administered with fat meal every 12 hrs for 8 days measured on day 1; format: ADME, organism-based; conditions: in vivo
[59] = Oral bioavailability rat; format: ADME, organism-based; conditions: in vivo

Cn1c(=O)c(C(=O)NCCO)c(O)c2ncc(Cc3ccc(F)cc3)cc21 [GSK-364735]
bioavailability [1]: 6%
Tmax [2]: 3.75 h
AUC(0-inf) [3]: 6600 ng·h/mL
CL/F [4]: 317 mL/min
Activity (Homo sapiens [5]): 4%
AUC at 12 h [6]: 9600 ng·h/mL
Activity (Homo sapiens [7]): Non-toxic
Activity (Homo sapiens [8]): 13%
CL/F [9]: 367 mL/min
Activity (Homo sapiens [10]): Non-toxic
Cmax [11]: 1400 ng/mL
AUC(0-inf) [12]: 5200 ng·h/mL
CL/F [13]: 138 mL/min
half-life [14]: 1.5 h
half-life [15]: 2.9 h
Activity (Homo sapiens [16]): 13%
CL/F [17]: 783 mL/min
half-life [18]: 3.7 h
half-life [19]: 1.5 h
Activity (Homo sapiens [20]): 4%
Tmax [21]: 2.2 h
AUC(0-inf) [22]: 11000 ng·h/mL
IC50 [23]: 1.2 nM
fraction unbound (Homo sapiens [24]): 0.01
Cmax [25]: 2600 ng/mL
CL/F [26]: 550 mL/min
Cmax [27]: 1500 ng/mL
Cmax [28]: 1100 ng/mL
half-life [29]: 4 h
AUC at 12 h [30]: 5600 ng·h/mL
Tmax [31]: 3 h
Tmax [32]: 3.75 h
AUC(0-inf) [33]: 11000 ng·h/mL
AUC at 12 h [34]: 12000 ng·h/mL
half-life [35]: 2.8 h
Cmax [36]: 760 ng/mL
CL/F [37]: 1020 mL/min
Cmax [38]: 1300 ng/mL
Activity (Homo sapiens [39]): 13%
Cmax [40]: 740 ng/mL
half-life [41]: 6.5 h
Cmax [42]: 840 ng/mL
Cmax [43]: 2200 ng/mL
half-life [44]: 3.9 h
Cmax [45]: 970 ng/mL
Activity (Homo sapiens [46]): 4%
Tmax [47]: 2.5 h
Cmax [48]: 1300 ng/mL
half-life [49]: 3.1 h
Activity (Homo sapiens [50]): 4%
Activity (Homo sapiens [51]): 0.5 mg/dL
AUC(0-inf) [52]: 5500 ng·h/mL
Tmax [53]: 4 h
Activity (Homo sapiens [54]): Non-toxic
Activity (Homo sapiens [55]): Non-toxic
Activity (Homo sapiens [56]): Non-toxic
CL/F [57]: 147 mL/min
Tmax [58]: 4 h
bioavailability [59]: 6%
